Results taken from PubChem BioAssay AID330 (DTP/NCI, 2004).
Several values for one entry are separate records, joined by “and”; a condition that tells them apart may be missing. Identical values can stand only once. Toxic doses and inconclusive results are not listed. Rule for the calls: active = survival T/C of 150% or more; inactive = T/C below 125% in these data.

System: P388 leukemia ip, CD2F1 mice, survival T/C
Test: NCI In Vivo Anticancer Drug Screen. Data for tumor model P388 Leukemia (intraperitoneal) in CD2F1 (CDF1) mice
Settings: endpoint: median survival time, higher = longer survival
In short: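 Mice carrying the transplanted tumor received test compound or vehicle. Survival was recorded in each group, and the value is the treated-group measurement divided by that of the vehicle-treated control group.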

[1] = dose: 12.5 mg/kg/injection, schedule: Q01DX009 (ip), vehicle: saline with Tween-80
[2] = dose: 25.0 mg/kg/injection, schedule: Q01DX009 (ip), vehicle: saline with Tween-80
[3] = dose: 50.0 mg/kg/injection, schedule: Q01DX009 (ip), vehicle: saline with Tween-80
[4] = dose: 25.0 mg/kg/injection, schedule: Q01DX009 (ip), vehicle: saline
[5] = dose: 50.0 mg/kg/injection, schedule: Q01DX009 (ip), vehicle: saline
[6] = dose: 50.0 mg/kg/injection, schedule: Q01DX005 (ip), vehicle: saline with Tween-80
[7] = dose: 100.0 mg/kg/injection, schedule: Q01DX005 (ip), vehicle: saline with Tween-80
[8] = dose: 200.0 mg/kg/injection, schedule: Q01DX005 (ip), vehicle: saline with Tween-80
[9] = dose: 60.0 mg/kg/injection, schedule: Q01DX005 (ip), vehicle: saline
[10] = dose: 120.0 mg/kg/injection, schedule: Q01DX005 (ip), vehicle: saline
[11] = dose: 240.0 mg/kg/injection, schedule: Q01DX005 (ip), vehicle: saline
[12] = dose: 25.0 mg/kg/injection, schedule: Q01DX009 (ip), vehicle: Klucel (hydroxypropylcellulose) (HPC)
[13] = dose: 50.0 mg/kg/injection, schedule: Q01DX009 (ip), vehicle: Klucel (hydroxypropylcellulose) (HPC)
[14] = dose: 100.0 mg/kg/injection, schedule: Q01DX009 (ip), vehicle: Klucel (hydroxypropylcellulose) (HPC)
[15] = dose: 200.0 mg/kg/injection, schedule: Q01DX009 (ip), vehicle: Klucel (hydroxypropylcellulose) (HPC)

Measured: T/C

CCCCOc1ccc(Nc2c3ccccc3nc3ccccc23)cc1
inactive: [1] 98 % of control and 91 % of control | [2] 98 % of control and 106 % of control | [3] 121 % of control

O=[N+]([O-])c1c(Sc2ncccn2)ncnc1Sc1ncccn1
inactive: dose: 3.12 mg/kg/injection, schedule: Q01DX009 (ip), vehicle: saline with Tween-80 105 % of control | dose: 6.25 mg/kg/injection, schedule: Q01DX009 (ip), vehicle: saline with Tween-80 115 % of control | [1] 113 % of control | dose: 12.5 mg/kg/injection, schedule: Q01DX009 (ip), vehicle: saline 114 % of control | [4] 114 % of control | [5] 108 % of control

Cc1cn(C2CC(O)C(C(=O)Nc3ccc(C(=O)CCl)cc3)O2)c(=O)[nH]c1=O (configuration not stated)
inactive: [6] 108 % of control | [7] 114 % of control | [8] 109 % of control

CC(=O)Oc1ccc(C2c3c(n(C(C)=O)c4ccccc34)C(=O)NN2C(C)=O)cc1 (configuration not stated)
inactive: dose: 50.0 mg/kg/injection, schedule: Q01DX005 (ip), vehicle: Klucel (hydroxypropylcellulose) (HPC) 100 % of control | dose: 100.0 mg/kg/injection, schedule: Q01DX005 (ip), vehicle: Klucel (hydroxypropylcellulose) (HPC) 109 % of control | dose: 200.0 mg/kg/injection, schedule: Q01DX005 (ip), vehicle: Klucel (hydroxypropylcellulose) (HPC) 112 % of control

COc1ccc(/C=N\NC(=O)CNC(=O)Nc2cccc([N+](=O)[O-])c2)cc1O
inactive: dose: 15.0 mg/kg/injection, schedule: Q01DX005 (ip), vehicle: saline with Tween-80 107 % of control | dose: 30.0 mg/kg/injection, schedule: Q01DX005 (ip), vehicle: saline with Tween-80 93 % of control | dose: 60.0 mg/kg/injection, schedule: Q01DX005 (ip), vehicle: saline with Tween-80 89 % of control | dose: 240.0 mg/kg/injection, schedule: Q01DX005 (ip), vehicle: saline with Tween-80 91 % of control and 93 % of control

CCOC(=O)C1=C(SC)SC(C(=O)OCC)C2C=C(C)C=CN12 (configuration not stated)
inactive: dose: 15.0 mg/kg/injection, schedule: Q01DX005 (ip), vehicle: Klucel + Tween-80 97 % of control | dose: 30.0 mg/kg/injection, schedule: Q01DX005 (ip), vehicle: Klucel + Tween-80 108 % of control | dose: 60.0 mg/kg/injection, schedule: Q01DX005 (ip), vehicle: Klucel + Tween-80 104 % of control and 96 % of control

Cc1c2ccncc2c(CN2C(=O)c3ccccc3C2=O)c2c3ccccc3n(C)c12
inactive: dose: 12.5 mg/kg/injection, schedule: Q04DX002 (ip), vehicle: saline with Tween-80 102 % of control | dose: 25.0 mg/kg/injection, schedule: Q04DX002 (ip), vehicle: saline with Tween-80 100 % of control | dose: 50.0 mg/kg/injection, schedule: Q04DX002 (ip), vehicle: saline with Tween-80 98 % of control | dose: 100.0 mg/kg/injection, schedule: Q04DX002 (ip), vehicle: saline with Tween-80 95 % of control

CN(C)c1ccccc1[Si](C)(C)N(C)C
inactive: [9] 103 % of control | [10] 103 % of control | [11] 106 % of control

COC(=O)C(N)CCl (configuration not stated)
inactive: dose: 12.5 mg/kg/injection, schedule: Q01DX009 (ip), vehicle: water 91 % of control | dose: 25.0 mg/kg/injection, schedule: Q01DX009 (ip), vehicle: water 92 % of control | dose: 50.0 mg/kg/injection, schedule: Q01DX009 (ip), vehicle: water 90 % of control | dose: 100.0 mg/kg/injection, schedule: Q01DX009 (ip), vehicle: water 99 % of control | dose: 200.0 mg/kg/injection, schedule: Q01DX009 (ip), vehicle: water 90 % of control

CC[C@H](CC[C@@H](C)[C@H]1CC[C@H]2[C@@H]3CC=C4C[C@@H](OC(C)=O)CC[C@]4(C)[C@H]3CC[C@]12C)C(C)C
inactive: dose: 6.25 mg/kg/injection, schedule: Q01DX009 (ip), vehicle: Klucel (hydroxypropylcellulose) (HPC) 99 % of control and 110 % of control | dose: 12.5 mg/kg/injection, schedule: Q01DX009 (ip), vehicle: Klucel (hydroxypropylcellulose) (HPC) 105 % of control and 107 % of control | [12] 104 % of control and 92 % of control | [13] 98 % of control and 105 % of control | dose: 75.0 mg/kg/injection, schedule: Q01DX009 (ip), vehicle: Klucel (hydroxypropylcellulose) (HPC) 100 % of control and 92 % of control

N=C=S.O=NO.O=N[O-].[Co+3].[NH-]CC[NH-].[NH-]CC[NH-]
inactive: dose: 13.0 mg/kg/injection, schedule: Q01DX009 (ip), vehicle: saline 105 % of control | [4] 113 % of control | [5] 103 % of control

CC(=O)Oc1ccc2ccc(=O)oc2c1OC(C)=O
inactive: [12] 102 % of control | [13] 101 % of control | [14] 109 % of control | [15] 118 % of control

CSC1=NN(C)C2(CCCCC2)C(=O)N1
inactive: [13] 115 % of control | [14] 96 % of control | [15] 118 % of control

O=C([O-])C(=O)[O-].[Co+3].[NH2-].[NH2-].[NH2-].[NH2-].[O-][Cl+3]([O-])([O-])O
inactive: dose: 12.5 mg/kg/injection, schedule: Q04DX003 (ip), vehicle: water 89 % of control | dose: 25.0 mg/kg/injection, schedule: Q04DX003 (ip), vehicle: water 95 % of control | dose: 50.0 mg/kg/injection, schedule: Q04DX003 (ip), vehicle: water 98 % of control | dose: 100.0 mg/kg/injection, schedule: Q04DX003 (ip), vehicle: water 94 % of control

O=C(O)/C=C\S(=O)(=O)O
inactive: dose: 25.0 mg/kg/injection, schedule: Q04DX002 (ip), vehicle: saline 116 % of control | dose: 50.0 mg/kg/injection, schedule: Q04DX002 (ip), vehicle: saline 106 % of control | dose: 100.0 mg/kg/injection, schedule: Q04DX002 (ip), vehicle: saline 93 % of control

CCOC1[N-]CC(C)C(OCC)N1.CCOC1[N-]CC(C)C(OCC)N1.[Cl][Pd][Cl] (configuration not stated)
inactive: dose: 60.0 mg/kg/injection, schedule: Q01DX005 (ip), vehicle: Klucel (hydroxypropylcellulose) (HPC) 102 % of control | dose: 120.0 mg/kg/injection, schedule: Q01DX005 (ip), vehicle: Klucel (hydroxypropylcellulose) (HPC) 106 % of control | dose: 240.0 mg/kg/injection, schedule: Q01DX005 (ip), vehicle: Klucel (hydroxypropylcellulose) (HPC) 107 % of control

O=C1OCc2cnccc21
inactive: dose: 8.75 mg/kg/injection, schedule: Q01DX005 (ip), vehicle: Klucel (hydroxypropylcellulose) (HPC) 98 % of control | dose: 17.5 mg/kg/injection, schedule: Q01DX005 (ip), vehicle: Klucel (hydroxypropylcellulose) (HPC) 100 % of control | dose: 35.0 mg/kg/injection, schedule: Q01DX005 (ip), vehicle: Klucel (hydroxypropylcellulose) (HPC) 97 % of control

COc1ccc(C(=O)Cc2nc3nnc(N)n3[nH]c2=O)cc1
inactive: [9] 99 % of control | [10] 104 % of control | [11] 103 % of control

CC1(C)N=C(N)N=C(N)N1c1ccc(CCC(=O)Nc2ccc(S(=O)(=O)F)cc2)cc1
active: dose: 4.4 mg/kg/injection, schedule: Q01DX009 (ip), vehicle: saline with Tween-80 155 % of control | dose: 6.6 mg/kg/injection, schedule: Q01DX009 (ip), vehicle: saline with Tween-80 150 % of control | dose: 10.0 mg/kg/injection, schedule: Q01DX009 (ip), vehicle: saline with Tween-80 160 % of control | [1] 169 % of control | [2] 180 % of control | dose: 44.0 mg/kg/injection, schedule: Q01DX009 (ip), vehicle: saline with Tween-80 168 % of control | [3] 177 % of control | dose: 66.0 mg/kg/injection, schedule: Q01DX009 (ip), vehicle: saline with Tween-80 177 % of control
inactive: [5] 93 % of control

CC(C)=CCCC1=C2[C@H](O)C=C(C)C[C@@H]2OC1=O
inactive: [6] 100 % of control | [7] 99 % of control | [8] 101 % of control

CCOC(=O)C(C)C(=O)C(C)N1C(=O)c2ccccc2C1=O (configuration not stated)
inactive: dose: 25.0 mg/kg/injection, schedule: Q04DX003 (ip), vehicle: other 102 % of control | dose: 50.0 mg/kg/injection, schedule: Q04DX003 (ip), vehicle: other 96 % of control | dose: 100.0 mg/kg/injection, schedule: Q04DX003 (ip), vehicle: other 93 % of control | dose: 200.0 mg/kg/injection, schedule: Q04DX003 (ip), vehicle: other 93 % of control | dose: 400.0 mg/kg/injection, schedule: Q04DX003 (ip), vehicle: other 91 % of control
